Reference: patent US20240409585A1, “MACROCYCLIC IMMUNOMODULATORS” (priority 2021, published 2024)
Numbered stars: 1 amine (or outer) side, 2 acyl side, 3 side chain; on linkers, the order of the positions; unused ones are H or OH. Bridge positions count the residues as written; N and C are the ends. Square brackets hold non-standard residues; d marks the D form. Peptide text beside a SMILES is read from it. * marks the point of attachment. ξ: configuration not given here. Ala(4-isoquinolinyl) = N[C@@H](Cc1cncc2ccccc12)C(=O)O; X33 = O=C([C@H](Cc1ccc(-c2cccc(Cl)c2)cc1)N[*:1])[*:2]; Ala(morpholin-4-yl) = N[C@@H](CN1CCOCC1)C(=O)O; Phe(4-COOH) = N[C@@H](Cc1ccc(C(=O)O)cc1)C(=O)O; Phe(4-CH2NH2) = NCc1ccc(C[C@H](N)C(=O)O)cc1; Bip = N[C@@H](Cc1ccc(-c2ccccc2)cc1)C(=O)O; Phe(3-Br) = N[C@@H](Cc1cccc(Br)c1)C(=O)O; Phe(3-Me) = Cc1cccc(C[C@H](N)C(=O)O)c1; 2Nal = N[C@@H](Cc1ccc2ccccc2c1)C(=O)O; Val(3-OH) = CC(C)(O)[C@H](N)C(=O)O; 4Pal = N[C@@H](Cc1ccncc1)C(=O)O; 3Thi = N[C@@H](Cc1ccsc1)C(=O)O; Cha = N[C@@H](CC1CCCCC1)C(=O)O; Cit = NC(=O)NCCC[C@H](N)C(=O)O; Thr(3ξ) = CC(O)[C@H](N)C(=O)O; Carboxymethyl = O=C(O)C*; NMeA = CN[C@@H](C)C(=O)O; Nle = CCCC[C@H](N)C(=O)O; Orn = NCCC[C@H](N)C(=O)O; Pra = C#CC[C@H](N)C(=O)O; Dab = NCC[C@H](N)C(=O)O; Dap = NC[C@H](N)C(=O)O

The compounds below were run against T1, PE-labeled human PD-L1-Ig binding to Jurkat cell line over-expressing human PD-1 (Jurkat-PD-1) (Homo sapiens, UniProt Q15116) (assay: Jurkat-PD-1 Cell Binding High-Content Screening Assay (CBA): Method 1). Details: Jurkat-hPD-1 cells, PE-labeled PD-L1-Ig 20 nM final; read-out: Jurkat HPDL1 PD1 IC50 (uM) (Method 1).
T1 construct: expressed in transfected cells; host or cells: Jurkat
T1 sequence (Q15116 25-288): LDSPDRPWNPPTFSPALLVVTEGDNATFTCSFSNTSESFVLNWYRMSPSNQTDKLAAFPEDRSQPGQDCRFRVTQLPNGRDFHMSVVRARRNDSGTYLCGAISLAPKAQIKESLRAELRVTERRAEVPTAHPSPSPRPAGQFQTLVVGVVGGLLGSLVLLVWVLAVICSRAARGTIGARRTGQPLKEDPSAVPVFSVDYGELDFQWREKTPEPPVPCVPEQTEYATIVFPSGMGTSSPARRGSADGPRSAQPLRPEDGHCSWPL

Compared with `CC(C)C[C@@H]1NC(=O)[C@H](CCCNC(=N)N)NC(=O)[C@@H](CC(C)C)NC(=O)[C@H](C)N(C)C(=O)[C@H](CCCNC(=N)N)NC(=O)[C@H](Cc2ccc(-c3ccccc3)cc2)NC(=O)[C@H](C(C)C)NC(=O)[C@H](Cc2c[nH]c3ccccc23)NC(=O)[C@H](CC(=O)O)NC(=O)[C@H](Cc2ccc(O)cc2)NC(=O)[C@H](Cc2cnc[nH]2)NC(=O)CSC[C@@H](C(=O)N[C@@H](C)C(N)=O)NC(=O)[C@H]([C@@H](C)O)NC(=O)[C@H](C(C)C)NC1=O` [Compound 1047] ({CH2CO}-HYDWV[Bip]R[NMeA][dL]RLVTCA-NH2; thioether N-14), `CC(C)C[C@@H]1NC(=O)[C@H](CCN)NC(=O)[C@@H](CC(C)C)NC(=O)[C@H](C)N(C)C(=O)[C@H](CCCNC(=N)N)NC(=O)[C@H](Cc2ccc(-c3ccccc3)cc2)NC(=O)[C@H](C(C)C)NC(=O)[C@H](Cc2c[nH]c3ccccc23)NC(=O)[C@H](CC(=O)O)NC(=O)[C@H](Cc2ccc(C(=O)O)cc2)NC(=O)[C@H](CC(N)=O)NC(=O)CSC[C@@H](C(=O)N[C@@H](C)C(N)=O)NC(=O)[C@H]([C@@H](C)O)NC(=O)[C@H](C(C)C)NC1=O` [Compound 1452] ({CH2CO}-N[Phe(4-COOH)]DWV[Bip]R[NMeA][dL][Dab]LVTCA-NH2; thioether N-14) is 1.8-fold lower in IC50: 0.07 µM for the first, 0.04 µM for the second. The second is the more potent here.

First: CC(C)C[C@H]1NC(=O)[C@H](C)N(C)C(=O)[C@H](CCCNC(N)=O)NC(=O)[C@H](Cc2ccc(-c3ccccc3)cc2)NC(=O)[C@H](C(C)C)NC(=O)[C@H](Cc2c[nH]c3ccccc23)NC(=O)[C@H](CC(=O)O)NC(=O)[C@H](Cc2ccc(O)cc2)NC(=O)[C@H](Cc2ccc(OCC(=O)O)cc2)NC(=O)CSC[C@@H](C(=O)N[C@@H](C)C(N)=O)NC(=O)[C@H]([C@@H](C)O)NC(=O)[C@H](C(C)C)NC(=O)[C@H](CC2CCCCC2)NC(=O)[C@H](CCCNC(=N)N)NC1=O [Compound 1504] ({CH2CO}-Y(Carboxymethyl)YDWV[Bip][Cit][NMeA][dL]R[Cha]VTCA-NH2; thioether N-14)
Second: CC(C)C[C@@H]1NC(=O)[C@H](CCCNC(=N)N)NC(=O)[C@@H](Cc2ccccc2)NC(=O)[C@H](C)N(C)C(=O)[C@H](CCCNC(=N)N)NC(=O)[C@H](Cc2ccc(-c3ccccc3)cc2)NC(=O)[C@H](C(C)C)NC(=O)[C@H](Cc2c[nH]c3ccccc23)NC(=O)[C@H](CC(=O)O)NC(=O)[C@H](Cc2ccc(O)cc2)NC(=O)[C@H](CC(N)=O)NC(=O)CSC[C@@H](C(=O)N[C@@H](C)C(N)=O)NC(=O)[C@H](CO)NC(=O)[C@H](C(C)C)NC1=O [Compound 1042] ({CH2CO}-NYDWV[Bip]R[NMeA][dF]RLVSCA-NH2; thioether N-14)
The IC50 of the first is 2-fold lower: 0.02 µM for the first, 0.04 µM for the second.

Going from `C#CC[C@H](NC(=O)CNC(=O)[C@@H]1CSCC(=O)N[C@@H](Cc2ccc(OCC(=O)O)cc2)C(=O)N[C@@H](Cc2ccc(C(=O)O)cc2)C(=O)N[C@@H](CC(=O)O)C(=O)N[C@@H](Cc2c[nH]c3ccccc23)C(=O)N[C@@H](CC(C)C)C(=O)N[C@@H](Cc2ccc(-c3ccccc3)cc2)C(=O)N[C@@H](C(C)C)C(=O)N(C)[C@@H](C)C(=O)N[C@H](CC(C)C)C(=O)N[C@@H](CCN)C(=O)N[C@@H](CC2CCCCC2)C(=O)N[C@@H](C(C)(C)O)C(=O)N[C@@H](CO)C(=O)N1)C(=O)O` [Compound 1935] ({CH2CO}-Y(Carboxymethyl)[Phe(4-COOH)]DWL[Bip]V[NMeA][dL][Dab][Cha][Val(3-OH)]SCG[Pra]-OH; thioether N-14) to `Cc1cccc(C[C@@H]2NC(=O)[C@H](CC(=O)O)NC(=O)[C@H](Cc3ccc(OCC(=O)O)cc3)NC(=O)[C@H](Cc3ccsc3)NC(=O)CSC[C@@H](C(=O)N[C@@H](CCN)C(N)=O)NC(=O)[C@H](C(C)O)NC(=O)[C@H](C(C)C)NC(=O)[C@H](CC3CCCCC3)NC(=O)[C@H](CCN)NC(=O)[C@@H](CC(C)C)NC(=O)[C@H](C)N(C)C(=O)[C@H](Cc3ccc(OCC(=O)O)cc3)NC(=O)[C@H](Cc3ccc(-c4ccccc4)cc3)NC(=O)[C@H](Cc3ccc(C(=O)O)cc3)NC2=O)c1` (stereo partly drawn) [Compound 2128] ({CH2CO}-[3Thi]Y(Carboxymethyl)D[Phe(3-Me)][Phe(4-COOH)][Bip]Y(Carboxymethyl)[NMeA][dL][Dab][Cha]V[Thr(3ξ)]C[Dab]-NH2; thioether N-14), the IC50 falls from 0.04 µM to 0.01 µM (4-fold). The second is the more potent here.

Compared with `CC(C)C[C@@H]1NC(=O)[C@H](Cc2c[nH]c3ccccc23)NC(=O)[C@H](CC(=O)O)NC(=O)[C@H](Cc2ccc3ccccc3c2)NC(=O)[C@H](Cc2ccccc2)NC(=O)CSC[C@@H](C(=O)N[C@@H](C)C(N)=O)NC(=O)[C@H](CO)NC(=O)[C@H](C(C)C)NC(=O)[C@H](CC(C)C)NC(=O)[C@H](CC(N)=O)NC(=O)[C@@H](C)NC(=O)[C@H](C)N(C)C(=O)[C@H](C(C)C)NC(=O)[C@H](Cc2ccc(-c3ccccc3)cc2)NC1=O` [Compound 1800] ({CH2CO}-F[2Nal]DWL[Bip]V[NMeA][dA]NLVSCA-NH2; thioether N-14), `CCCC[C@@H]1NC(=O)[C@H](CCCNC(=N)N)NC(=O)[C@@H](CC(C)C)NC(=O)[C@H](C)N(C)C(=O)[C@H](C(C)C)NC(=O)[C@H](Cc2ccc(-c3ccccc3)cc2)NC(=O)[C@H](C(C)C)NC(=O)[C@H](Cc2c[nH]c3ccccc23)NC(=O)[C@H](CC(=O)O)NC(=O)[C@H](Cc2ccc(O)cc2)NC(=O)[C@H](Cc2ccccc2)NC(=O)CSC[C@@H](C(=O)N[C@@H](C)C(N)=O)NC(=O)[C@H]([C@@H](C)O)NC(=O)[C@H](C(C)C)NC1=O` [Compound 1502] ({CH2CO}-FYDWV[Bip]V[NMeA][dL]R[Nle]VTCA-NH2; thioether N-14) is 1.8-fold lower in IC50: 0.18 µM for the first, 0.1 µM for the second.

`CC(C)C[C@H]1NC(=O)[C@H](C)N(C)C(=O)[C@H](Cc2ccc(CN)cc2)NC(=O)[C@H](Cc2ccc(-c3ccccc3)cc2)NC(=O)[C@H](C(C)C)NC(=O)[C@H](Cc2c[nH]c3ccccc23)NC(=O)[C@H](CC(=O)O)NC(=O)[C@H](Cc2ccc(O)cc2)NC(=O)[C@H](Cc2ccncc2)NC(=O)CSC[C@@H](C(=O)N[C@@H](C)C(N)=O)NC(=O)[C@H](C(C)O)NC(=O)[C@H](C(C)C)NC(=O)[C@H](CC2CCCCC2)NC(=O)[C@H](CC(N)=O)NC1=O` (stereo partly drawn) [Compound 2048] ({CH2CO}-[4Pal]YDWV[Bip][Phe(4-CH2NH2)][NMeA][dL]N[Cha]V[Thr(3ξ)]CA-NH2; thioether N-14) and `CC[C@H](C)[C@@H]1NC(=O)[C@H](Cc2ccc(-c3ccccc3)cc2)NC(=O)[C@H](C(C)C)NC(=O)[C@H](Cc2c[nH]c3ccccc23)NC(=O)[C@H](CC(=O)O)NC(=O)[C@H](Cc2ccc(OCC(=O)O)cc2)NC(=O)[C@H](Cc2ccncc2)NC(=O)CSC[C@@H](C(=O)N[C@@H](C)C(N)=O)NC(=O)[C@H]([C@@H](C)O)NC(=O)[C@H](C(C)C)NC(=O)[C@H](CC(C)C)NC(=O)[C@H](CCN)NC(=O)[C@@H](CC(C)C)NC(=O)[C@H](C)N(C)C1=O` [Compound 1413] ({CH2CO}-[4Pal]Y(Carboxymethyl)DWV[Bip]I[NMeA][dL][Dab]LVTCA-NH2; thioether N-14) are the same in IC50: 0.03 µM for the first, 0.03 µM for the second.

Compared with `Cc1cccc(C[C@@H]2NC(=O)[C@H](CC(=O)O)NC(=O)[C@H](Cc3ccc(O)cc3)NC(=O)[C@H](CN)NC(=O)CSC[C@@H](C(=O)N[C@@H](C)C(N)=O)NC(=O)[C@H]([C@@H](C)O)NC(=O)[C@H](C(C)C)NC(=O)[C@H](CC(C)C)NC(=O)[C@H](CCN)NC(=O)[C@@H](CC(C)C)NC(=O)[C@H](C)N(C)C(=O)[C@H](C(C)C)NC(=O)[C@H](Cc3ccc(-c4ccccc4)cc3)NC(=O)[C@H](C(C)C)NC2=O)c1` [Compound 1428] ({CH2CO}-[Dap]YD[Phe(3-Me)]V[Bip]V[NMeA][dL][Dab]LVTCA-NH2; thioether N-14), `CC(C)C[C@@H]1NC(=O)[C@H](CCN)NC(=O)[C@@H](CC(C)C)NC(=O)[C@H](C)N(C)C(=O)[C@H](CCCNC(=N)N)NC(=O)[C@H](Cc2ccc(-c3cccc(Cl)c3)cc2)NC(=O)[C@H](C(C)C)NC(=O)[C@H](Cc2c[nH]c3ccccc23)NC(=O)[C@H](CC(=O)O)NC(=O)[C@H](Cc2ccc(O)cc2)NC(=O)[C@H](CC(N)=O)NC(=O)CSC[C@@H](C(=O)N[C@@H](C)C(N)=O)NC(=O)[C@H]([C@@H](C)O)NC(=O)[C@H](C(C)C)NC1=O` [Compound 1222] ({CH2CO}-NYDWV[X33]R[NMeA][dL][Dab]LVTCA-NH2; thioether N-14) is 3-fold higher in IC50: 0.04 µM for the first, 0.12 µM for the second.

Going from `Cc1cccc(C[C@@H]2NC(=O)[C@H](CC(=O)O)NC(=O)[C@H](Cc3ccc(OCC(=O)O)cc3)NC(=O)[C@H](CN3CCOCC3)NC(=O)CSC[C@@H](C(=O)N[C@@H](CCN)C(N)=O)NC(=O)[C@H](CCCN)NC(=O)[C@H](C(C)C)NC(=O)[C@H](Cc3cccc(Br)c3)NC(=O)[C@H](CCN)NC(=O)[C@@H](CC(C)C)NC(=O)[C@H](C)N(C)C(=O)[C@H](CCC(N)=O)NC(=O)[C@H](Cc3ccc(-c4ccccc4)cc3)NC(=O)[C@H](Cc3ccc(C(=O)O)cc3)NC2=O)c1` [Example 2291] ({CH2CO}-[Ala(morpholin-4-yl)]Y(Carboxymethyl)D[Phe(3-Me)][Phe(4-COOH)][Bip]Q[NMeA][dL][Dab][Phe(3-Br)]V[Orn]C[Dab]-NH2; thioether N-14) to `CC(C)C[C@@H]1NC(=O)[C@H](CCN)NC(=O)[C@@H](CC(C)C)NC(=O)[C@H](C)N(C)C(=O)[C@H](CCC(=O)O)NC(=O)[C@H](Cc2ccc(-c3ccccc3)cc2)NC(=O)[C@H](C(C)C)NC(=O)[C@H](Cc2c[nH]c3ccccc23)NC(=O)[C@H](CC(=O)O)NC(=O)[C@H](Cc2ccc(O)cc2)NC(=O)[C@H](Cc2ccccc2)NC(=O)CSC[C@@H](C(=O)N[C@@H](CCC(=O)O)C(N)=O)NC(=O)[C@H]([C@@H](C)O)NC(=O)[C@H](C(C)C)NC1=O` [Compound 1164] ({CH2CO}-FYDWV[Bip]E[NMeA][dL][Dab]LVTCE-NH2; thioether N-14), the IC50 falls from 0.21 µM to 0.07 µM (3-fold).

`CC(C)C[C@@H]1NC(=O)[C@H](CCN)NC(=O)[C@@H](CC(C)C)NC(=O)[C@H](C)N(C)C(=O)[C@H](CCCNC(=N)N)NC(=O)[C@H](Cc2ccc(-c3ccccc3)cc2)NC(=O)[C@H](C(C)C)NC(=O)[C@H](Cc2cncc3ccccc23)NC(=O)[C@H](CC(=O)O)NC(=O)[C@H](Cc2ccc(O)cc2)NC(=O)[C@H](Cc2ccccc2)NC(=O)CSC[C@@H](C(=O)N[C@@H](C)C(N)=O)NC(=O)[C@H]([C@@H](C)O)NC(=O)[C@H](C(C)C)NC1=O` [Compound 1200] ({CH2CO}-FYD[Ala(4-isoquinolinyl)]V[Bip]R[NMeA][dL][Dab]LVTCA-NH2; thioether N-14) was tested, and the IC50 was 0.49 µM.
